Measurements as given in US9682995B2, “Amino-substituted isothiazoles” (BAYER PHARMA AKTIENGESELLSCHAFT, priority 2013, dated 2017).

How the values were obtained:
HeLa = assay: Proliferation assay (crystal violet), HeLa; format: cell-based; details: Homo sapiens, 96 h, 4 days, read-out: Inhibition of proliferation IC50 HeLa
Experimental: Cultivated tumor cells (cells were ordered from ATCC, except HeLa-MaTu and HeLa-MaTu-ADR, which were ordered from EPO-GmbH, Berlin) were plated at a density of 1000 to 5000 cells/well, depending on the growth rate of the respective cell line, in a 96-well multititer plate in 200 μL of their respective growth medium supplemented 10% fetal calf serum. After 24 hours, the cells of one plate (zero-point plate) were stained with crystal violet (see below), while the medium of the other plates was replaced by fresh culture medium (200 μl), to which the test substances were added in various concentrations (0 μM, as well as in the range of 0.001-10 μM; the final concentration of the solvent dimethyl sulfoxide was 0.5%). The cells were incubated for 4 days in the presence of test substances. Cell proliferation was determined by staining the cells with crystal violet: the cells were fixed by adding 20 μl/measuring point of an 11% glutaric aldehyde solution for 15 minutes at room temperature. After three washing cycles of the fixed cells with water, the plates were dried at room temperature. The cells were stained by adding 100 μl/measuring point of a 0.1% crystal violet solution (pH 3.0). After three washing cycles of the stained cells with water, the plates were dried at room temperature. The dye was dissolved by adding 100 μl/measuring point of a 10% acetic acid solution. Absorption was determined by photometry at a wavelength of 595 nm. The change of cell number, in percent, was calculated by normalization of the measured values to the absorption values of the zero-point plate (=0%) and the absorption of the untreated (0 μm) cells (=100%). The IC50 values were determined by means of a 4 parameter fit.

human Bub1 = human Bub1 (Homo sapiens (Human), UniProt O43683); assay: Bub1 kinase assay (TR-FRET); format: biochemical; details: 10 μM ATP; read-out: Bub1 avg (IC50 [mol/l])
Sequence of human Bub1 (O43683 704-1085): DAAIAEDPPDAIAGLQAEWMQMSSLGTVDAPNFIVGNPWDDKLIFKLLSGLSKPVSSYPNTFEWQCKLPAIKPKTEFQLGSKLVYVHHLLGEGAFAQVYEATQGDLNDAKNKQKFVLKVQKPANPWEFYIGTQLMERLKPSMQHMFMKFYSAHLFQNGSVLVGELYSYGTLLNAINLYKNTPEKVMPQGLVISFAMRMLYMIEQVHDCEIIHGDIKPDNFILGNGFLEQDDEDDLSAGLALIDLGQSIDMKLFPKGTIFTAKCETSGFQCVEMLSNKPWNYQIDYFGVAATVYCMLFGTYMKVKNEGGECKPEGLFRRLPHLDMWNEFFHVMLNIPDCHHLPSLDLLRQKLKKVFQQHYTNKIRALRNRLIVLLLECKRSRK
From the text: Bub1-inhibitory activity of compounds of the present invention was quantified employing the Bub1 TR-FRET assay as described in the following paragraphs.
N-terminally His6-tagged recombinant catalytic domain of human Bub1 (amino acids 704-1085), expressed in insect cells (Hi5) and purified by Ni-NTA affinity chromatography and subsequent size exclusion chromatography, was used as enzyme. As substrate for the kinase reaction the biotinylated peptide biotin-Ahx-VLLPKKSFAEPG (C-terminus in amid form) was used which can be purchased e.g. form the company Biosyntan (Berlin, Germany).
For the assay 50 nl of a 100 fold concentrated solution of the test compound in DMSO was pipetted into a black low volume 384 well microtiter plate (Greiner Bio-One, Frickenhausen, Germany), 2 μl of a solution of Bub1 in aqueous assay buffer [50 mM Tris/HCl pH 7.5, 10 mM magnesium chloride (MgCl2), 200 mM potassium chloride (KCl), 1.0 mM dithiothreitol (DTT), 0.1 mM sodium ortho-vanadate, 1% (v/v) glycerol, 0.01% (w/v) bovine serum albumine (BSA), 0.005% (v/v) Trition X-100 (Sigma), 1× Complete EDTA-free protease inhibitor mixture (Roche)] were added and the mixture was incubated for 15 min at 22° C. to allow pre-binding of the test compounds to the enzyme before the start of the kinase reaction. Then the kinase reaction was started by the addition of 3 μl of a solution of adenosine-tri-phosphate (ATP, 16.7 μM=>final conc. in the 5 μl assay volume is 10 μM) and substrate (1.67 μM=>final conc. in the 5 μl assay volume is 1 μM) in assay buffer and the resulting mixture was incubated for a reaction time of 60 min at 22° C. The concentration of Bub1 was adjusted depending of the activity of the enzyme lot and was chosen appropriate to have the assay in the linear range, typical concentrations were in the range of 200 ng/ml. The reaction was stopped by the addition of 5 μl of a solution of TR-FRET detection reagents (0.2 μM streptavidine-XL665 [Cisbio Bioassays, Codolet, France] and 1 nM anti-phosho-Serine antibody [Merck Millipore, cat. #35-001] and 0.4 nM LANCE EU-W1024 labeled anti-mouse IgG antibody [Perkin-Elmer, product no. AD0077, as an alternative a Terbium-cryptate-labeled anti-mouse IgG antibody from Cisbio Bioassays can be used]) in an aqueous EDTA-solution (50 mM EDTA, 0.2% (w/v) bovine serum albumin in 100 mM HEPES pH 7.5).
The resulting mixture was incubated 1 h at 22° C. to allow the formation of complex between the phosphorylated biotinylated peptide and the detection reagents. Subsequently the amount of phosphorylated substrate was evaluated by measurement of the resonance energy transfer from the Eu-chelate to the streptavidine-XL. Therefore, the fluorescence emissions at 620 nm and 665 nm after excitation at 350 nm was measured in a TR-FRET reader, e.g. a Rubystar or Pherastar (both from BMG Labtechnologies, Offenburg, Germany) or a Viewlux (Perkin-Elmer). The ratio of the emissions at 665 nm and at […] was taken as the measure for the amount of phosphorylated substrate. The data were normalised (enzyme reaction without inhibitor=0% inhibition, all other assay components but no enzyme=100% inhibition).

SMILES	IC50 (HeLa)	IC50 (human Bub1)
Cc1nsc(Nc2cc(C#N)ccn2)c1C(=O)Nc1ccc(Oc2ccccc2)nc1 [Example 111, 5-[(4-Cyanopyridin-2-yl)amino]-3-methyl-N-(6-phenoxypyridin-3-yl)-1,2-thiazole-4-carboxamide]	2.1 µM	> 20 µM
Cc1nsc(Nc2cncc(C(=O)N3CCOCC3)n2)c1C(=O)Nc1ccc(F)c(F)c1 [Example 107, N-(3,4-Difluorophenyl)-3-methyl-5-{[6-(morpholin-4-ylcarbonyl)pyrazin-2-yl]amino}-1,2-thiazole-4-carboxamide]	4.9 µM	> 20 µM
COC(=O)c1cncc(Nc2snc(C)c2C(=O)Nc2ccc(OC)nc2)n1 [Example 101, Methyl 6-({4-[(6-methoxypyridin-3-yl)carbamoyl]-3-methyl-1,2-thiazol-5-yl}amino)pyrazine-2-carboxylate]	7.2 µM	> 20 µM
CCc1ccnc(Nc2snc(C)c2C(=O)Nc2ccccc2CC)n1 [Example 17, N-(2-Ethylphenyl)-5-[(4-ethylpyrimidin-2-yl)amino]-3-methyl-1,2-thiazole-4-carboxamide]	> 10 µM	> 20 µM
COc1ncc(NC(=O)c2c(C)nsc2Nc2cnc3ccccc3n2)cc1C [Example 121, N-(6-Methoxy-5-methylpyridin-3-yl)-3-methyl-5-(quinoxalin-2-ylamino)-1,2-thiazole-4-carboxamide]	3.3 µM	> 20 µM
CCc1ccccc1NC(=O)c1c(C)nsc1Nc1ncnc2sccc12 [Example 12, N-(2-Ethylphenyl)-3-methyl-5-(thieno[2,3-d]pyrimidin-4-ylamino)-1,2-thiazole-4-carboxamide]	9.5 µM	> 20 µM
CCc1ccccc1NC(=O)c1c(C)nsc1Nc1cc(-n2ccnc2)ncn1 [Example 9, N-(2-Ethylphenyl)-5-{[6-(1H-imidazol-1-yl)pyrimidin-4-yl]amino}-3-methyl-1,2-thiazole-4-carboxamide]	2.4 µM	> 20 µM
CCc1ccccc1NC(=O)c1c(C)nsc1Nc1ncnc2ccsc12 [Example 13, N-(2-Ethylphenyl)-3-methyl-5-(thieno[3,2-d]pyrimidin-4-ylamino)-1,2-thiazole-4-carboxamide]	> 10 µM	> 20 µM
COC(=O)c1cnc(Nc2snc(C)c2C(=O)Nc2ccc(OC)nc2)cn1 [Example 32, Methyl 5-({4-[(6-methoxypyridin-3-yl)carbamoyl]-3-methyl-1,2-thiazol-5-yl}amino)-pyrazine-2-carboxylate]	8.3 µM	> 20 µM
Cc1nsc(Nc2cncc(N(C)C)n2)c1C(=O)Nc1ccc(F)c(F)c1 [Example 105, N-(3,4-Difluorophenyl)-5-{[6-(dimethylamino)pyrazin-2-yl]amino}-3-methyl-1,2-thiazole-4-carboxamide]	10 µM	> 20 µM
COc1ccc(NC(=O)c2c(C)nsc2Nc2cnc3ccc(F)cc3n2)cn1 [Example 44, 5-[(7-Fluoroquinoxalin-2-yl)amino]-N-(6-methoxypyridin-3-yl)-3-methyl-1,2-thiazole-4-carboxamide]	2.4 µM	> 20 µM
CCc1ccccc1NC(=O)c1c(C)nsc1Nc1ccc(C#N)cn1 [Example 7, 5-[(5-Cyanopyridin-2-yl)amino]-N-(2-ethylphenyl)-3-methyl-1,2-thiazole-4-carboxamide]	3 µM	> 20 µM
COC(=O)c1ccc(Nc2snc(C)c2C(=O)Nc2ccc(OC)nc2)nc1 [Example 31, Methyl 6-({4-[(6-methoxypyridin-3-yl)carbamoyl]-3-methyl-1,2-thiazol-5-yl}amino)-nicotinate]	> 10 µM	> 20 µM
CCOC(=O)c1sc(Nc2snc(C)c2C(=O)Nc2ccc(OC)nc2)nc1C [Example 30, Ethyl 2-({4-[(6-methoxypyridin-3-yl)carbamoyl]-3-methyl-1,2-thiazol-5-yl}amino)-4-methyl-1,3-thiazole-5-carboxylate]	1.6 µM	> 20 µM
Cc1nsc(Nc2ncc(C(=O)N(C)C)s2)c1C(=O)Nc1ccc(F)c(F)c1 [Example 49, N-(3,4-Difluorophenyl)-5-{[5-(dimethylcarbamoyl)-1,3-thiazol-2-yl]amino}-3-methyl-1,2-thiazole-4-carboxamide]	4.4 µM	> 20 µM
COc1ccc(NC(=O)c2c(C)nsc2Nc2cc(C#N)ccn2)cn1 [Example 25, 5-[(4-Cyanopyridin-2-yl)amino]-N-(6-methoxypyridin-3-yl)-3-methyl-1,2-thiazole-4-carboxamide]	> 10 µM	> 20 µM
CCc1ccccc1NC(=O)c1c(C)nsc1Nc1nc2ccccc2nc1C [Example 21, N-(2-Ethylphenyl)-3-methyl-5-[(3-methylquinoxalin-2-yl)amino]-1,2-thiazole-4-carboxamide]	> 10 µM	> 20 µM
CCc1ccccc1NC(=O)c1c(C)nsc1Nc1nccnc1C#N [Example 34, 5-[(3-Cyanopyrazin-2-yl)amino]-N-(2-ethylphenyl)-3-methyl-1,2-thiazole-4-carboxamide]	6.7 µM	> 20 µM
COc1ccc(NC(=O)c2c(C)nsc2Nc2cnc3ccc(Cl)cc3n2)cn1 [Example 42, 5-[(7-Chloroquinoxalin-2-yl)amino]-N-(6-methoxypyridin-3-yl)-3-methyl-1,2-thiazole-4-carboxamide]	1.2 µM	> 20 µM
Cc1nsc(Nc2ccn3nccc3n2)c1C(=O)Nc1ccc(F)c(F)c1 [Example 57, N-(3,4-Difluorophenyl)-3-methyl-5-(pyrazolo[1,5-a]pyrimidin-5-ylamino)-1,2-thiazole-4-carboxamide]	2.9 µM	> 20 µM
Cc1nsc(Nc2nc3c(C(F)(F)F)ccnc3s2)c1C(=O)Nc1ccc(Cl)c(F)c1 [Example 103, N-(4-Chloro-3-fluorophenyl)-3-methyl-5-{[7-(trifluoromethyl)[1,3]thiazolo[5,4-b]pyridin-2-yl]amino}-1,2-thiazole-4-carboxamide]	2.9 µM	> 20 µM
Cc1nsc(Nc2cncc(C(=O)N(C)C)n2)c1C(=O)Nc1ccc(F)c(F)c1 [Example 104, 6-({4-[(3,4-Difluorophenyl)-carbamoyl]-3-methyl-1,2-thiazol-5-yl}amino)-N,N-dimethyl-pyrazine-2-carboxamide]	10 µM	> 20 µM
CCOC(=O)c1coc(Nc2snc(C)c2C(=O)Nc2ccc(OC)nc2)n1 [Example 100, Ethyl 2-({4-[(6-methoxypyridin-3-yl)carbamoyl]-3 methyl-1,2-thiazol-5-yl}amino)-1,3-oxazole-4-carboxylate]	10 µM	> 20 µM
